One assay relates to PTGS2 (COX2). The experiment in a line: qRT-PCR of NF-κB target gene PTGS2 in TNF-α challenged cells. The assay is classed as cell-based, human. The settings on record: 10 ng/ml TNF-α for 24 hours; listed as SH-11052 (2). On the procedure:
Similarly, the mRNA expression of the pro-inflammatory molecules IL8, PTGS2 (COX2) and CCL2 (MCP-1), inducible by NF-κB, were analyzed in the presence of SH-11052 (2). Cells (10^5 per well) were seeded in a 6-well plate and incubated for 24 hours at 37° C. and 5% CO2. The cells were then starved in 0.1% serum-EBM-2 for 12 hours followed by incubation for an hour in the presence of different concentrations of SH-11052 (2). The cells were then challenged for 24 hours with 10 ng/ml TNF-α. Following incubation, cells were lysed and RNA was isolated using Trizol reagent (Life Technologies). cDNA was prepared from 80 ng total RNA using random primers and M-MuLV Reverse Transcriptase (New England Biolabs, Ipswich, Mass., USA). RT-PCR reactions were set up using the TaqMan Fast Gene Expression Assay Kit according to the manufacturer's instructions. FAM-labeled TaqMan probes for PTGS2 (Hs00153133_m1), CCL2 (Hs00234140_m1), IL8 (Hs00174103_m1), and control, TBP (Hs99999910_m1), genes were used to monitor the expression levels of these genes. The qRT-PCR plate was read in a ViiATM 7 qPCR system (Life Technologies) and the data were analyzed using the ΔΔCt method. The expression levels of genes were normalized to TBP gene expression and calibrated to the DMSO-treated, unstimulated sample.

The subject of a further assay is VEGFR2. As to the kind of experiment: Phosphorylation of VEGFR2 in HRECs upon VEGF stimulation (immunoblot). The assay is classed as cell-based, human. The conditions noted are these: 100 ng/ml VEGF, 20 minutes. On the procedure:
(§1) HRECs were seeded at 10^5 cells/well in a 6-well plate and after 24 hours of incubation at 37° C., cells were serum starved in 0.1% serum-EBM-2 for 8 hours. Cells were then treated with the indicated concentrations of SH-11052 (2) for one hour before the addition of 100 ng/ml VEGF. After 20 minutes, cells were lysed in NP-40 Lysis buffer containing 25 mM HEPES pH 7.4, 1% NP-40, 150 mM NaCl, 10% glycerol, 1 mM sodium orthovanadate, 10 mM sodium fluoride, 1 mM sodium pyrophosphate, 1 mM PMSF, 2.5 mg/ml aprotinin, 1 mM pepstatin, and 1 mM leupeptin. Equal amounts of proteins (80 μg), as measured by a Bradford assay, were run on 10% SDS-PAGE, transferred to PVDF membrane, blocked with 5% BSA in TBS-0.05% Tween-20 and immunoblotted with the indicated primary antibodies (1:1000 in 1% BSA in TBS-0.05% Tween-20) overnight at 4° C. After three washes in TBS-0.05% Tween-20, HRP-conjugated secondary antibodies (1:5000 in 5% BSA in TBS-0.05% Tween-20) were applied for one hour at room temperature. After three washes, the protein bands were detected and densitized using ECL Prime western blot detection reagent (GE Life Sciences, Piscataway, N.J., USA) and an XRS gel documentation system running Quantity One software (Bio-Rad). Target protein band intensity was normalized to housekeeping gene α-tubulin. […]
For orientation: Immunoblotting shows a protein as a band on a membrane.

Another assay has as its system IκB-α. The experiment in a line: TNF-α-mediated degradation of IκB-α in HRECs (immunoblot). The assay is classed as cell-based, human. The settings on record: 20 ng/ml TNF-α, 20 minutes. On the procedure: as §1, with “of 20” for “of 100”, “ng/ml of TNF-α.” for “ng/ml VEGF.”
The test system of the next assay is Akt. As to the kind of experiment: Phosphorylation of Akt in HRECs upon VEGF stimulation (immunoblot). It is filed as cell-based, human. The settings on record: 100 ng/ml VEGF, 20 minutes. On the procedure: as §1
The test system of another assay is p21, CDK1, IL-6 and IL-8. The experiment in a line: Gene expression effects on p21, CDK1, IL-6 and IL-8 (data not shown). The assay is classed as cell-based. The conditions noted are these: compared with cremastranone.
Assay [1] deals with oxygen-induced retinopathy (OIR). The experiment in a line: Oxygen-induced retinopathy (OIR) mouse model, intravitreal injection. It is filed as in vivo, C57BL/6 mice. The conditions noted are these: single intravitreal dose, estimated 1 μM, injected P12, read P17; listed as SH-11037 (6c). On the procedure:
Particularly, neonatal C57BL/6 mice (n=3-4 pups per group) were exposed to 75% oxygen from postnatal day 7 (P7) until P12 and brought to room air to cause ischemia and extensive neovessel formation at P17. The hyperoxia obliterates the normal retinal vasculature, prompting aberrant overgrowth including intravitreal vascular tufts, once returned to normoxia. Further, mice were injected with PBS alone (vehicle) or PBS containing SH-11037 (6c) to give the estimated intravitreal concentrations of 1.0 μM using a 33G needle, under isoflurane anesthesia at the time of return to room air on P12. At P17, the mice were euthanized, eyes fixed, and retinal wholemounts were prepared.
Wholemounts were stained with AlexaFluor488-isolectin B4 and imaged on a Zeiss LSM700 confocal microscope. Neovascular area, as a percentage of total retinal area, was calculated using ImageJ with the SWIFT_NV plugin.

The test system of another assay is HRECs. As to the kind of experiment: Migration of HRECs. The assay is classed as cell-based, human.

SMILES strings stand for the structures. “Also recorded” adds a separate entry of the source.

Take `COc1ccc(CC2COc3cc(OC)c(O)c(O)c3C2=O)cc1O` (single isomer, unassigned) [Compound 2]: the “mRNA expression of PTGS2 (COX2)” value with PTGS2 (COX2) is on record as “decreased the expression”. The “phosphorylation of VEGFR2” value in the assay on VEGFR2 was “did not inhibit phosphorylation”. For the same compound, the “TNF-α-mediated degradation of IκB-α” value in the assay with IκB-α is “significantly decreased in a dose dependent manner”. For the same compound, in the assay on Akt, the “activation (phosphorylation) of Akt” value is “inhibited activation”.

Turning to `COc1ccc(CC2COc3cc(OC)c(OC)c(OC)c3C2=O)cc1OC(=O)[C@H](Cc1ccccc1)NC(=O)OC(C)(C)C` (stereo partly drawn) [Compound 6c, (2S)-2-methoxy-5-((5,6,7-trimethoxy-4-oxochroman-3-yl)methyl)phenyl 2-((tert-butoxycarbonyl)amino)-3-phenylpropanoate], the “gene expression effects on p21, CDK1, IL-6 and IL-8” value with p21, CDK1, IL-6 and IL-8 is reported as “did not share cremastranone's gene expression effects”. In addition, the “neovascular area / neovascularization in vivo” value in assay [1] is “blocked neovascularization in vivo; also recorded: significantly decreased neovascular area”. Moreover, the “migration of HRECs” value with HRECs is on record as “blocked migration”.

(Values after patent publication US10738024B2, “Compounds for treatment of angiogenesis-mediated diseases” (Indiana University Research and Technology Corporation, priority 2013, dated 2020).)
